# Data from patent publication US12090204B2, “Photodynamic therapy compositions and methods of use thereof” (Pinnacle Biologics, Inc., priority 2020, dated 2024).
# Values joined by “and” are separate entries in the source; they are usually repeats but may differ in a detail not shown here. Identical values can stand only once.
# What was measured:
# P. anaerobius (+) = assay: porfimer sodium aPDT, planktonic culture; assay type: cell-based, Peptostreptococcus anaerobius; details: 630 nm, kill at 75 J/cm2 (light dose 50-100 J/cm2), porfimer sodium 150 μg/mL
# Experimental: (§1) Bacteria were routinely cultured using tryptic soy broth or agar at 37° C. in a 5% CO2 incubator. Bacteria were isolated and suspended with 0.9% NaCl to an Optical Density (OD) of 0.1 taken at 630 nm, to generate the inoculum used for either planktonic or biofilm assays.
# (§2) Experiments using planktonic cultures were carried out using M. catarrhalis, as a standard for further comparisons and to determine the effective drug concentration, porfimer sodium incubation time and light dose parameters which would provide an effective cell kill at the level of 5-7 logs. Once determined the experiments were repeated for all other bacterial strains examined.
# (§3) The colony forming units (CFU) per mL of the starting inoculum for every experiment was determined by dilution plating. […]
# (§4) Bacteria were exposed to 630 nm laser light via a fiber optic with a lens affixed to the distal end to provide a uniform diverging light field. […] Power output of the laser was measured using a UDT/Gamma Scientific 371 optical power meter and an integrating sphere. […]
# (§5) Biofilms were formed on glass coupons in culture dishes containing a bacterial inoculum for 48 hours under conditions specific to the strain. […] Power output of the laser was measured using a UDT/Gamma Scientific 371 optical power meter and an integrating sphere. […]
# MRSA (+) = assay: porfimer sodium aPDT, planktonic culture; assay type: cell-based, methicillin-resistant Staphylococcus aureus; details: 630 nm, 200 J/cm2, porfimer sodium 125 μg/mL
# Experimental: as §1, §2, §3, §4, §5
# H. influenza (−) = assay: porfimer sodium aPDT, planktonic culture; assay type: cell-based, Haemophilus influenza; details: 630 nm, 200 J/cm2, porfimer sodium 125 μg/mL
# Experimental: as §1, §2, §3, §4, §5
# M. catarrhalis (−) = assay: porfimer sodium aPDT, 48 hour biofilm culture; assay type: cell-based, Moraxella catarrhalis; details: 630 nm, kill at 75 J/cm2 (light dose 75-100 J/cm2), porfimer sodium 250 μg/mL
# Experimental: as §1
# (§6) The colony forming units (CFU) per mL of the starting inoculum for every experiment was determined by dilution plating. Control samples were exposed to laser at 630 nm in the absence of porfimer sodium, porfimer sodium in the absence of laser exposure, or in saline alone in the absence of porfimer sodium and 630 nm laser light. All experimental samples were dilution plated to enumerate viable CFU's. Three independent replicates were performed for each reaction condition per strain per assay. […]
# as §4, §5
# F. nucleatum (−) = assay: porfimer sodium aPDT, 48 hour biofilm culture; assay type: cell-based, Fusobacterium nucleatum; details: 630 nm, kill at 100 J/cm2 (light dose 75-100 J/cm2), porfimer sodium 250 μg/mL
# Experimental: as §1, §6, §4, §5
# [1] = system: methicillin-resistant Staphylococcus aureus (MRSA), Staphylococcus aureus ATCC BAA 1768; assay: partial thickness wound model, microbial load in tissue biopsy (Example 4); assay type: in vivo, Yorkshire pig; details: for TISSUE BIOPSY (CFU/mm^2) 24 hr. after treatment 2: individual wounds
# Experimental: Bacteria strains were obtained from ATCC (Manassas, VA). Bacteria were propagated from glycerol stock store at −80° C. A stab of the glycerol stock was used to inoculate 5 mL of trypticase soy broth. The cultures were incubated overnight at 37° C. with shaking at 250 rpm. The following day, a portion of overnight culture was used to prepare a streak plate onto an Oxacillin screen plate which was incubated overnight at 37° C. and single colony isolates of freshly plated bacteria were used to prepare bacterial inoculum. The morning of wounding an infection, a portion of overnight culture was used to inoculate 50 mL of trypticase soy broth and the newly inoculated media was incubated at 37° C. with shaking at 250 rpm until log phase growth was reached. The bacteria were pelleted by centrifugation at 4,000 rpm at 4° C. for 10 minutes in a Sorval tabletop centrifuge. The culture supernatant was discarded, and the bacterial pellets were suspended in a volume of sterile PBS to yield a concentration of 2×10^7 CFU/mL.
# Tissue samples were obtained using an 8 mm biopsy punch. The biopsy punch was placed into a homogenization tube containing 1 mL of sterile PBS and stainless steel homogenization beads and the tissues were homogenized in a Reich MM300 mixer mill homogenizer. Serial 10-fold dilutions of the tissue homogenates were prepared in sterile PBS and 100 microliters of select dilutions for each wound were plated onto agar plates. The plates were incubated at 35-37° C. and the colonies were enumerated manually. Microbial loads were normalized at CFU/mm^2 of tissue surface area per punch.
# This study evaluated the ability of porfimer sodium to reduce/eliminate microbial colonization and biofilm from surgical sites in a partial thickness would healing model. The study was conducted in a single female Yorkshire pig over the course of five days. A dermatome was used to create 20 partial thickness wounds. Sixteen of the wounds were infected with methicillin-resistant Staphylococcus aureus (MRSA), and four were designated as uninfected controls. The wounds were bandaged and the bacterial biofilm allowed to develop for 48 hours.
# Designated infected wounds were subjected to two courses of treatment with the test article at a periodicity of 24 hours. […]
# Treatments consisted of application of the test article followed by photoactivation with one or two intensities of light, 150 J/cm^2 or 200 J/cm^2 (Table 3). Wounds were evaluated for microbial load prior to each course of treatment, immediately following the final treatment and 24 hours following the final treatment. […]
substance,measurement,setting,value
porfimer sodium,Rate of kill,P. anaerobius (+),5Log
same,Rate of kill,MRSA (+),>6Log
same,Rate of kill,H. influenza (−),4Log
same,Rate of kill,M. catarrhalis (−),>6Log
same,Rate of kill,F. nucleatum (−),3Log
same,"Mean microbial load, Tissue","[1]; Group 3 (150 J/cm^2), N 6",8.13E+03 CFU/mm^2
same,TISSUE BIOPSY (CFU/mm^2) 24 hr. after treatment 2,[1]; Group 3 = 150 J/cm2 treatment,4.28E+03 CFU/mm^2 and 1.57E+04 CFU/mm^2 and 2.78E+03 CFU/mm^2 and 4.73E+03 CFU/mm^2 and 1.05E+04 CFU/mm^2
same,"Mean microbial load, Tissue","[1]; Group 4 (200 J/cm^2), N 3, without wounds L6, R5, R9",2.64E+03 CFU/mm^2
same,TISSUE BIOPSY (CFU/mm^2) 24 hr. after treatment 2,[1]; Group 4 = 200 J/cm2 treatment,6.27E+03 CFU/mm^2 and 5.47E+02 CFU/mm^2 and 1.11E+03 CFU/mm^2 and 8.35E+03 CFU/mm^2 and 3.36E+03 CFU/mm^2
